Kd data for two compounds are collected here from article PMC8831599, “Defining molecular glues with a dual-nanobody cannabidiol sensor” (Nature Communications, 2022).

The target in experiment [1] is T1, CA14 (anchor binder nanobody).
T1 construct: nanobody CA14, tag-free; CA14 alone in ITC
Nature of the experiment: ITC; […] Å crystal structure of the CA14-CBD-DB21 ternary complex. It is filed as binding. (In general: Isothermal titration calorimetry measures the heat released or taken up as one component is titrated into another.)

Experiment [2] addresses T2, TIR1 (Arabidopsis thaliana, UniProt Q570C0).
T2 construct: TIR1-ASK1 co-expressed complex; with ASK1
Nature of the experiment: ITC; BLI and AlphaScreen with IAA7 degron. It counts as binding.

T2 sequence (Q39255 whole entry): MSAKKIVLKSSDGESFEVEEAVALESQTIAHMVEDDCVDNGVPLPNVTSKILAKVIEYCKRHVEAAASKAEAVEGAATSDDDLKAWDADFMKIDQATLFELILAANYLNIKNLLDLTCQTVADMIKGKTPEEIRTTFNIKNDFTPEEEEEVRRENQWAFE
T2 sequence (Q570C0 whole entry): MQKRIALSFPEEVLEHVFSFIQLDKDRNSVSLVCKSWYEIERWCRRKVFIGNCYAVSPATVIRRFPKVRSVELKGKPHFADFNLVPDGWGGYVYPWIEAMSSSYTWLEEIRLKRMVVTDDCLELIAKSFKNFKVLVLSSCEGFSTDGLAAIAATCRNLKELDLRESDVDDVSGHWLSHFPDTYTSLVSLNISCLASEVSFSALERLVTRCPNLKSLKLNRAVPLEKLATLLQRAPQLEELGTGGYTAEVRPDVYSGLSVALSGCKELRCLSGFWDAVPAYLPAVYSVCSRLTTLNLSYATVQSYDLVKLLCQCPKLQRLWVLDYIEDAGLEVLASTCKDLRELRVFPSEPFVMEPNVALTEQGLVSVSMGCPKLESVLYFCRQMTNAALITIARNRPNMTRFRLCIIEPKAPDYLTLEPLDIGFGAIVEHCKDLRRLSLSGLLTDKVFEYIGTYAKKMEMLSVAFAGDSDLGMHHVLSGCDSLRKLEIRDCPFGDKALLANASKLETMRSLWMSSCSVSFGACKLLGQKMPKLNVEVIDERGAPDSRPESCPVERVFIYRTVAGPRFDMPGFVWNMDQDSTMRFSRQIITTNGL

A word on the Kd: it is the equilibrium constant for the complex coming apart. A lower Kd goes with tighter binding. As to `C=C(C)[C@@H]1CCC(C)=C[C@H]1c1c(O)cc(CCCCC)cc1O` [CBD, cannabidiol], in experiment [1], the affinity, expressed as Kd, was 2.2 µM.

`O=C(O)Cc1c[nH]c2ccccc12` [auxin] returned a Kd in experiment [2] of 13.4 µM.
